According to patent publication US20190135755A1, “CRYSTAL POLYMORPHISM OF KCNQ2-5 CHANNEL ACTIVATOR” (ONO PHARMACEUTICAL CO., LTD., priority 2016, published 2019):
Values after ≈ are worked out from the molar mass of the structure shown.

Columns and labels:
Human KCNQ2/3 = biological target: T1, Human KCNQ2/3 (Homo sapiens, UniProt O43525+O43526); experiment: Opening action with respect to KCNQ2/3 channel by depolarization stimulation (thallium influx, FLIPR); assay type: cell-based; conditions: human KCNQ2/3 expressing CHO-DHFR- cells; concentration giving 50% of maximum reaction of retigabine (10 μM); 5 mM potassium and 0.5 mM thallium; read-out: opening action (ECrtg50 value) with respect to the KCNQ2/3 channel
T1 construct: expressed in transfected cells; host or cells: CHO-DHFR- cells
Procedure: Human KCNQ2/3 expression cells (CHO-DHFR-cells) were seeded in each well of a 384-well plate (collagen-coated, black, clear bottom) at 0.5×10^4 cells/50 μL per well and cultured in a MEM ALPHA medium (containing 10 vol % inactivated (56° C., 30 min) fetal bovine serum, 100 IU/mL penicillin, 100 μg/mL streptomycin, and 2 mM L-glutamine) at 37° C. in 5% CO2 for 18 to 24 hours. After the medium in the plate was removed, incubation (room temperature, 60 minutes, shading) was performed in a loading buffer (prepared by the method described in the manual of FluxOR Thallium Detection Kit (Invitrogen, F10016, F10017)). A KCNQ2/3 channel opening action (thallium influx into cells) by depolarization stimulation (5 mM potassium and 0.5 mM thallium) was measured by FLIPR TETRA (Molecular Devices). The compound I was treated 5 minutes before the depolarization stimulation, and the reaction induced by the depolarization stimulation was measured over time for 180 seconds. The channel opening action of the compound I was evaluated based on the change amount of the fluorescence intensity from the time before the depolarization stimulation to the time after the elapse of 180 seconds, and the concentration (ECrtg50) satisfying 50% of the fluorescence intensity change of a maximum reaction (in the treatment at 10 μM) of retigabine under the conditions of this experiment was calculated.

Solubility test = assay type: physicochemical; conditions: aqueous buffer, kinetic from dmso stock, Japanese Pharmacopoeia dissolution test second solution (pH 6.8), room temperature, quantification range 5 to 100 μM
Procedure: A calibration curve solution was prepared at 0.1, 0.4, and 2 μM by diluting a test substance (a 10 mM DMSO solution) with acetonitrile and adding acetonitrile containing an internal standard substance (candesartan).
A sample solution was prepared as follows. 5 μL of the compound I (a 10 mM DMSO solution) was added to 495 μL of the Japanese Pharmacopoeia dissolution test second solution (pH: 6.8), followed by stirring at room temperature for 5 hours. Then, the solution was transferred to a solubility filter plate and subjected to suction filtration. The filtrate (20 μL) was diluted with acetonitrile, followed by adding acetonitrile containing an internal standard substance (candesartan).
Each of the calibration curve and sample solutions (5 μL) was injected into LC-MS/MS (Discovery Max, manufactured by Thermo Scientific, Inc.) and subjected to quantification (quantification range: 5 to 100 μM). The solubility in the case where the value equal to or less than the quantification range was obtained was defined as <5 μM, and the solubility in the case where the value equal to or more than the quantification range was obtained was defined as […].

[1] = Water vapor adsorption/desorption isotherm measurement; assay type: physicochemical; conditions: 25° C., relative humidity of 50% RH or more, based on mass when dried (0% RH)
Procedure: (3) Water Vapor Adsorption/Desorption Isotherm Measurement
Device: DVS Intrinsic, manufactured by SMS Co., Ltd.
Change in relative humidity: 0% to 95% (5% STEP)
STEP transition criterion: percent change in weight: 0.002%/min
A change in mass when the humidity was changed in a stepwise manner (relative humidity: from 0% RH to 95% RH) at 25° C. was recorded over time, and an equilibrium mass at each humidity was determined. Subsequently, based on the mass when dried (0% RH), the percent change in mass at each humidity and the hydration number were determined.

[2] = Chemical stability test of crystal form under storage conditions; assay type: physicochemical; conditions: all storage conditions, compared with the sample
Procedure: The stability of the crystal form of the present invention was examined under various storage conditions. After storage, the residual ratio (%) of each of the samples stored under the respective conditions with respect to the area percentage of the sample stored at −20° C. was calculated by HPLC. Further, by using a powder X-ray diffraction spectrum, peaks were compared with those of the sample. The appearance was observed by visual inspection and compared with that of the sample.
<Storage Conditions and Sampling Time>
25° C.-60% RH (opened): 3 months
40° C.-75% RH (opened): 3 months
2500 Lux: 20D (shading, transparent)

[3] = system: bladder extracted from rat; experiment: Relaxing action on bladder extracted from rat (Magnus test, carbachol contraction); conditions: concentration at which percent change in tension is −20%; carbachol 1 μM contraction; female Wistar rat bladder strip
Procedure: Female Jcl:Wistar rats (CLEA Japan, Inc., body weight at use: 170 to 200 g) were anesthetized by intraperitoneal administration of about 40 mg/kg of pentobarbital (Somnopentyl, Schering Plough Animal Health Corporation), and killed by bloodletting. The bladder was extracted by abdominal incision and immediately thereafter immersed in ice-cooled Krebs buffer (Krebs Ringer bicarbonate buffer (Sigma-Aldlich Co. LLC) supplemented with sodium hydrogen carbonate (final concentration: 15 mM) and calcium chloride (final concentration: 2.5 mM)) saturated with a mixed gas (95% O2, 5% CO2).
The bladder body extracted from each rat was cut into an oblong strip shape (about 10×3 mm), whereby a specimen was prepared on ice. Immediately thereafter, the specimen was suspended in a Magnus tube filled with Krebs buffer (37° C.) bubbled with the mixed gas while applying a tension load of 500 mg thereto. Incidentally, the specimen was prepared within 24 hours after extracting the tissue. […]
The tension (mg) in the extracted bladder was used as an evaluation item. The tension was read using analysis software WAVE THERMO 1000. […] The percent change in tension (%) is calculated according to the following formula. […]
The value at which the percent change in tension (%) was −20% was calculated as IC20 and used as an index of the relaxing action on the extracted bladder.

hERG channel = biological target: T2, hERG channel (Homo sapiens, UniProt Q12809); experiment: Evaluation of action on hERG IKr current (patch-clamp); assay type: cell-based; conditions: HEK293 cells overexpressing hERG, maximum tail current, 10 minutes after application, read-out: 50% hERG channel inhibitory activity
T2 construct: expressed in transfected cells; host or cells: HEK293 cells
Procedure: By using HEK293 cells overexpressing a human ether-a-go-go-related gene (hERG), the maximum tail current of the hERG IKr current induced by redepolarization pulse subsequent to depolarization pulse was measured by a patch-clamp method. The percent change (suppression rate) after 10 minutes from application of a test substance with respect to the maximum tail current before the application of the test substance was calculated (see, Biophysical Journal, vol. 74, pp. 230-241 (1998)).

[4] = Evaluation of stability in human liver microsomes; assay type: in vitro ADME; conditions: 0.5 mg/mL human liver microsomes, NADPH, 37° C., 15 minutes, 5 μmol/L
Procedure: A test compound (a 10 mmol/L DMSO solution, 5 μL) was diluted with a 50% aqueous acetonitrile solution (195 μL), whereby a 0.25 mmol/L solution was prepared.
To a reaction vessel preheated to 37° C., 0.5 mg/mL of human liver microsomes (XenoTech, LLC) and 245 μL of a 0.1 M phosphate buffer solution (pH 7.4) containing NADPH co-factor (BD Biosciences) were added, followed by preincubation for 5 minutes, and thereafter, the above-prepared test compound solution (5 μL) was added thereto to start a reaction (final concentration: 5 μmol/L). Immediately after the start, a 20 μL portion was collected and added to 180 μL of acetonitrile containing an internal standard substance (warfarin) to stop the reaction. A 20 μL portion of this solution was stirred with 180 μL of a 50% aqueous acetonitrile solution on a plate equipped with a deproteinization filter, followed by suction filtration, and the filtrate was used as a standard sample.
After the above-prepared reaction solution was incubated at 37° C. for 15 minutes, a 20 μL portion of the solution was added to 180 μL of cooled acetonitrile (containing warfarin serving as an internal standard substance) to stop the reaction. […]
A residual ratio (%) was calculated as follows. […]

T1 sequence (O43526 whole entry): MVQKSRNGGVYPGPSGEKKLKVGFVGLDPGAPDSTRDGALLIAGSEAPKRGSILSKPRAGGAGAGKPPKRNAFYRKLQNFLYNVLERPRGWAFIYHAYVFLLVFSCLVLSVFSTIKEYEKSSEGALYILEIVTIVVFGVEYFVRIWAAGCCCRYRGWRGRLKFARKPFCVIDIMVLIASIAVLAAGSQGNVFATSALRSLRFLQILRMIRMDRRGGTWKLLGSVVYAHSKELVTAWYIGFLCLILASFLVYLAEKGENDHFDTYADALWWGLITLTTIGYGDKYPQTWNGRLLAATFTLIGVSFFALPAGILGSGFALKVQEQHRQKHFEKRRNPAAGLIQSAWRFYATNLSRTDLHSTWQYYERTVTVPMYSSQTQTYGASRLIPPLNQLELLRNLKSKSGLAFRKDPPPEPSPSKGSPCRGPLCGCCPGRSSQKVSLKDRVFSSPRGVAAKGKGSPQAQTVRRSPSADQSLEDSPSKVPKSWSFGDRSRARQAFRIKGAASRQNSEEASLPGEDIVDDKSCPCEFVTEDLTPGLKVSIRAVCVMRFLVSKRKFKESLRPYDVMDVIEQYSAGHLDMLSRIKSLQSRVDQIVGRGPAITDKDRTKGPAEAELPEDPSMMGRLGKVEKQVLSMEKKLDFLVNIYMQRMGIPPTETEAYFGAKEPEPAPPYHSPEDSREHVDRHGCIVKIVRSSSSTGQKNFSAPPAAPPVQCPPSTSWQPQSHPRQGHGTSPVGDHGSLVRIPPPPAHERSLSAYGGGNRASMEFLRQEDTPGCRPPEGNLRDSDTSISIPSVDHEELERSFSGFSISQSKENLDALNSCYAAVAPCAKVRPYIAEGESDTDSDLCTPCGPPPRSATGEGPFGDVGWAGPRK
T1 sequence (O43525 whole entry): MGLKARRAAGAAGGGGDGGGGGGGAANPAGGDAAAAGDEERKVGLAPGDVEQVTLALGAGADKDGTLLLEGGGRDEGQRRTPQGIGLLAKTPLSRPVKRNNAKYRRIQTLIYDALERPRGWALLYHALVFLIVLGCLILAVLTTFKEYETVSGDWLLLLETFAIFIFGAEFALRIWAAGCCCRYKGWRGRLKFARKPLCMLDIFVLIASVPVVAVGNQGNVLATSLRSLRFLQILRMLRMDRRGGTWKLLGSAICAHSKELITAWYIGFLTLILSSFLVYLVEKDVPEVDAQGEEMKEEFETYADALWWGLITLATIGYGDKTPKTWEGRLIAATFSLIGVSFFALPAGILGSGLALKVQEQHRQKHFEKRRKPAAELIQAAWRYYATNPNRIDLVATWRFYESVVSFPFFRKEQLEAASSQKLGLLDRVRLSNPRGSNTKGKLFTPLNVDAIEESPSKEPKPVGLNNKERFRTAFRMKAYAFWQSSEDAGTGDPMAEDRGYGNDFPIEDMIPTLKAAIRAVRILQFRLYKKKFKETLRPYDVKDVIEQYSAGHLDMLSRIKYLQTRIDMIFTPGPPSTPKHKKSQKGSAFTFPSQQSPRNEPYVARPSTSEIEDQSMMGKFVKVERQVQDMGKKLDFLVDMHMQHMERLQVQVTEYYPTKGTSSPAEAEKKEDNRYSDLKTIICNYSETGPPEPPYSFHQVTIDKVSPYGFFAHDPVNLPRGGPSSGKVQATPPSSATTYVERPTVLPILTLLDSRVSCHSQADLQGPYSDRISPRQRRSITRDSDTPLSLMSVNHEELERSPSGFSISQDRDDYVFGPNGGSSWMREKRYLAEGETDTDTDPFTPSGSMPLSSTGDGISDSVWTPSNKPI
T2 sequence (Q12809 whole entry): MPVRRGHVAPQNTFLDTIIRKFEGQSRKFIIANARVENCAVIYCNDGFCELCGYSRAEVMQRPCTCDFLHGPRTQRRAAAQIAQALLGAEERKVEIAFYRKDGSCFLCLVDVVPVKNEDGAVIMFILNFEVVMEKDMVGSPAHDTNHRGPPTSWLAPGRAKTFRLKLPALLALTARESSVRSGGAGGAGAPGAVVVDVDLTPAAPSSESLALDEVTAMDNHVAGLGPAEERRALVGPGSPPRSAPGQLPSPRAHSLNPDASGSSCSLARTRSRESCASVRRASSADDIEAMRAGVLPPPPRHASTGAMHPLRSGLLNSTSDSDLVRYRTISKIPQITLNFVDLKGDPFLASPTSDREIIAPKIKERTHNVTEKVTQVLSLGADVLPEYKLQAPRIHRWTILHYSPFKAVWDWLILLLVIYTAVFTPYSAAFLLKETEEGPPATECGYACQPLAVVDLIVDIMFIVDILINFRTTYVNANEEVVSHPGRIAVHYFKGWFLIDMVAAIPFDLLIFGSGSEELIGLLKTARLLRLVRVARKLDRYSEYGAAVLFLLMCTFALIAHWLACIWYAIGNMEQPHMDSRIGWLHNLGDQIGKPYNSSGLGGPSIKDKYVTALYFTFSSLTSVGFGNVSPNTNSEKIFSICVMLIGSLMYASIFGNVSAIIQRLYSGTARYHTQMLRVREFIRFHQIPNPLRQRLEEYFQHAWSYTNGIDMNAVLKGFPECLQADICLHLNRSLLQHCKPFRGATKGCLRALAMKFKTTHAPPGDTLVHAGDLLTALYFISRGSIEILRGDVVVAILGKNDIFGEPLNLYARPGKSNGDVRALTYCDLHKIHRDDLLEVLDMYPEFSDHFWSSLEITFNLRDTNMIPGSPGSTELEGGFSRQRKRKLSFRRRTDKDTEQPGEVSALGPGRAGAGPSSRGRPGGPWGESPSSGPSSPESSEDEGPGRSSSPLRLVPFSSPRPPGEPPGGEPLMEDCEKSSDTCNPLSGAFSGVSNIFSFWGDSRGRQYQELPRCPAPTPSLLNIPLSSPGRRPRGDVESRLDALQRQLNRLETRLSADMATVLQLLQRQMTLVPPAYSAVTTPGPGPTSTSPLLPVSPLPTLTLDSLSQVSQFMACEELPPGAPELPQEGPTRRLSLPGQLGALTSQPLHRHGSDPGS

SMILES: CC(O)(c1ccc(NC(=O)NCc2ccc(C(F)(F)F)cn2)cc1)C(F)(F)F (centres unmarked) [Comparative Example 1, 1-[4-(1,1,1-trifluoro-2-hydroxy-2-propanyl)phenyl]-3-{[5-(trifluoromethyl)-2-pyridinyl]methyl}urea]
- EC50 (Human KCNQ2/3): > 10000 nM

SMILES: O=C(Cc1ccc(F)cc1)Nc1c(Cl)cc(Cl)cc1Br [Comparative Example 2, N-(2-bromo-4,6-dichlorophenyl)-2-(4-fluorophenyl)acetamide, reference compound]
- EC50 (Human KCNQ2/3): 200 nM
- solubility at 5 h (Solubility test): < 5 µM

SMILES: C[C@](O)(c1cc(Cl)c(NC(=O)NCc2ccc(Cl)cn2)c(Cl)c1)C(F)(F)F.O [H crystal, Crystal of hydrate (H crystal) of 1-[(5-chloro-2-pyridinyl)methyl]-3-{2,6-dichloro-4-[(2S)-1,1,1-trifluoro-2-hydroxy-2-propanyl]phenyl}urea]
- percent change in mass [1]: 4%

SMILES: C[C@](O)(c1cc(Cl)c(NC(=O)NCc2ccc(Cl)cn2)c(Cl)c1)C(F)(F)F [A crystal, A crystal of 1-[(5-chloro-2-pyridinyl)methyl]-3-{2,6-dichloro-4-[(2S)-1,1,1-trifluoro-2-hydroxy-2-propanyl]phenyl}urea]
- appearance after storage (visual inspection) [2]: a change in appearance was not observed
- powder X-ray diffraction spectrum after storage [2]: an increase in the number of peaks was not observed

SMILES: C[C@](O)(c1cc(Cl)c(NC(=O)NCc2ccc(Cl)cn2)c(Cl)c1)C(F)(F)F [compound I, 1-[(5-chloro-2-pyridinyl)methyl]-3-{2,6-dichloro-4-[(2S)-1,1,1-trifluoro-2-hydroxy-2-propanyl]phenyl}urea]
- EC50 (Human KCNQ2/3): 600 nM
- IC20 [3]: 500 nM
- IC50 (hERG channel): > 10000 nM
- residual ratio (stability against human liver microsomes) [4]: 87%
- solubility at 5 h (Solubility test): 98 µM (≈ 43.4 µg/mL)
